Read-outs that look alike come from different tables or passages of the source.
What was measured:
STAT3 SH2 domain = STAT3 SH2 domain (Homo sapiens, UniProt P40763); experiment: Microscale thermophoresis binding to STAT3 SH2 domain; settings: MST, FIG. 5A; read-out: affinity for the STAT3 SH2 domain
Excerpt: (§1) The microscale thermophoresis (MST) technique is a simple, rapid, and accurate method for quantifying biomolecular interactions. It can measure the movement of molecules in a microscopic temperature gradient field, as well as detect changes of molecular hydration shell, charge and size. When the Nanotemper microscale thermophoresis instrument locally heated by a infrared laser, molecules will move in a directional manner, then the molecular distribution ratio in the temperature gradient field are analyzed by a fluorescence to detect whether a small molecule compound binds to a target protein. The experimental operation is as follows: firstly, compounds to be tested are diluted in a gradient using MST test buffer, total 16 concentrations being configured; subsequently, the purified STAT3 recombinant protein is labeled using the HIS tag labeling kit, and the final concentration of the labeled protein is 100-200 nM; the labeled STAT3 proteins are well mixed with the diluted compounds and incubated and protected from light for 30 minutes; finally the samples were loaded by capillary tube and detected on the instrument. The binding constants (K^D) of small molecules to STAT3 protein were analyzed by Mo. analysis software.
(1) Microscale Thermophoresis Experiment
The method is as described in Example 40.

[1] = dose of 25 mg/kg, cited from earlier work
Capan-2 = experiment: Cell proliferation by MTS method, Capan-2; assay type: cell-based
Excerpt: (§2) (2) Detection of Cell Proliferation by MTS Method
(§3) The MTS assay is a method for indirectly determining the number of living cells via colourimetric method. MTS is a newly synthesised tetrazole compound that reflects cell viability, which can be reduced by succinate dehydrogenase in the mitochondria of living cells to an orange-coloured formazan with an absorbance of the reduced product measured at 490 nm being in proportion to the number of living cells, thus reflecting the cell viability. This assay can be used to evaluate the effect of the compound on the proliferation of pancreatic cancer cells, thereby determining the inhibitory effect of the compound on the proliferation of pancreatic cancer cells and to calculate the IC^50. Each cells were inoculated uniformly into a 96-well plate at a density of 1-20×10^3 cells/well, 100 μL per well, and placed in a constant temperature incubator until the cells adhered to the wall. The control group was added with the corresponding medium and the experimental groups were given different concentrations of the compound prepared by the examples of the present invention, and the cells were taken out 24-96 h after administration for observing the cell state under a microscope. Under light-proof conditions, MTS was added and well mixed, the mixture was placed in a constant temperature incubator at 37° C., and the light absorption value were measured using an enzyme marker at 490 nm and the experiment was repeated for three times, IC50 was calculated with GraphPad5 Prism software.

STAT3 protein = STAT3 protein (Homo sapiens, UniProt P40763); experiment: Binding activity to STAT3 protein by microscale thermophoresis (MST); settings: purified STAT3 recombinant protein
Excerpt: (1) Determination of Binding Activities of Compounds to STAT3 Protein by Microscale Thermophoresis (MST) Method
as §1

HCC827 = experiment: Cell proliferation by MTS method, HCC827; assay type: cell-based; settings: Homo sapiens; Table 1, HCC827; read-out: Tumour cell proliferative activity/IC50(nM) Lung Cancer HCC827
Excerpt: as §2, §3

Huh7 = experiment: Cell proliferation by MTS method, Huh7; assay type: cell-based; settings: Homo sapiens, Huh-7; Table 1, Huh7; read-out: Tumour cell proliferative activity/IC50(nM) Liver Cancer Huh7
Excerpt: as §2, §3

MKN45 = experiment: Cell proliferation by MTS method, MKN45; assay type: cell-based; settings: Homo sapiens, MKN-45; Table 1, MKN45; read-out: Tumour cell proliferative activity/IC50(nM) gastric Cancer MKN45
Excerpt: as §2, §3

[2] = Homo sapiens, Table 1, Capan-2, read-out: Tumour cell proliferative activity/IC50(nM) Pancreatic Cancer Capan-2

Sequence of STAT3 protein (P40763 whole entry): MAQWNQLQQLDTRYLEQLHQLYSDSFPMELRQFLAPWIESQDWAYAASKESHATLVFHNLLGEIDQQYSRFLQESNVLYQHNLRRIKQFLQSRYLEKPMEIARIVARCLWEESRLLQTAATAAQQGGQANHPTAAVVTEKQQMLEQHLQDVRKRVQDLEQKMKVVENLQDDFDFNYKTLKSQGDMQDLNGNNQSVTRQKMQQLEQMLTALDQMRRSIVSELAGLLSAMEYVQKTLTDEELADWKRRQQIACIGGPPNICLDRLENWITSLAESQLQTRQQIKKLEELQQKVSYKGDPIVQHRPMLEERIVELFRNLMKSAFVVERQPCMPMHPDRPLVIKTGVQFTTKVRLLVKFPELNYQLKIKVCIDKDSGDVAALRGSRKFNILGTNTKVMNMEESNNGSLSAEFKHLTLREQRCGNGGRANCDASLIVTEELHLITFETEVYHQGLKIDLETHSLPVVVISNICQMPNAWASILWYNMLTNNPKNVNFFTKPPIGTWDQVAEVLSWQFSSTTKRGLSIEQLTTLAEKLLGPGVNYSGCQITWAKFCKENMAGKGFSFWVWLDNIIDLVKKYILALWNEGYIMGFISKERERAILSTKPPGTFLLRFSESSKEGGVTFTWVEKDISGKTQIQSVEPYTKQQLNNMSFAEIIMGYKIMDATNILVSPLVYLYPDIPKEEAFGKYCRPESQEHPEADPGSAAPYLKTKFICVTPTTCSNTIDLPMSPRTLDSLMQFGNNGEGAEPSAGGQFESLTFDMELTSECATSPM
Sequence of STAT3 SH2 domain (P40763 580-670 limits assumed): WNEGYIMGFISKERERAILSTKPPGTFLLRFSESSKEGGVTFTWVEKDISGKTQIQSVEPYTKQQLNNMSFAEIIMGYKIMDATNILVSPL

| SMILES | Kd (STAT3 protein) [nM] | IC50 (HCC827) [nM] | IC50 (Huh7) [nM] | IC50 (MKN45) [nM] | Kd (STAT3 SH2 domain) [nM] | mortality in the mouse model ([1]; 25 mg/kg) | mortality in the mouse model ([1]; listed as IACS-101759, 25 mg/kg) | IC50 (Capan-2; Capan-2, FIG. 5B, read-out: IC50, inhibition of proliferation of pancreatic cancer cells) [nM] | IC50 (Capan-2; [2]) [nM] | IC50 (Capan-2; Homo sapiens, Capan-2, FIG. 5B, read-out: IC50, inhibition of proliferation of pancreatic cancer cells) [nM] | improvement of anti-tumor proliferative activity over OPB51602 and IACS-010759 (Capan-2; pancreatic cancer cells, FIG. 5B) [times] |
| --- | --- | --- | --- | --- | --- | --- | --- | --- | --- | --- | --- |
| Cc1nc(-c2nc(-c3ccc(OC(F)(F)F)cc3)no2)nn1Cc1cccc(N2CCC(S(C)(=O)=O)CC2)c1 [IACS-010759, reference compound] |  |  |  |  | 2780 | all mice in the administered group died | all mice died | 2.7 |  |  |  |
| Cc1ccc(CN2CCN(C(=O)c3cc4ccc(Oc5cnc(-c6nc(-c7ccc(C(F)(F)F)cc7)no6)cn5)cc4n3C)CC2)cc1 [Example 25, (1-methyl-6-((5-(3-(4-(trifluoromethyl)phenyl)-1,2,4-oxadiazol-5-yl)pyrazin-2-yl)oxy)-1H-indol-2-yl) (4-(4-methylbenzyl)piperazin-1-yl)methanone] | < 100 | < 100 | < 100 | < 100 |  |  |  |  | < 100 |  |  |
| Cn1c(C(=O)N2CCN(Cc3ccccc3)CC2)cc2ccc(Oc3cnc(-c4nc(-c5ccc(C(F)(F)F)cc5)no4)cn3)cc21 [Example 23, (4-benzylpiperazin-1-yl)(1-methyl-6-((5-(3-(4-(trifluoromethyl)phenyl)-1,2,4-oxadiazol-5-yl)pyrazin-2-yl)oxy)-1H-indol-2-yl)methanone] | < 100 | < 1000 | < 1000 | < 1000 |  |  |  |  | < 1000 |  |  |
| Cn1c(C(=O)N2CCN(Cc3ccc(OCC(F)(F)F)cc3)CC2)cc2ccc(Oc3cnc(-c4nc(-c5cccc(C(F)(F)F)c5)no4)cn3)cc21 [Example 8, (6-((5-(3-(3-(trifluoromethyl)phenyl)-1,2,4-oxadiazol-5-yl)pyrazin-2-yl)oxy)-1-methyl-1H-indol-2-yl)(4-(4-(2,2,2-trifluoroethoxy)benzyl)piperazin-1-yl)methanone] | < 1 | < 1 | < 1 | < 1 |  |  |  |  | < 1 | 0.34 | 10 |

More lines, main results first:

| Kd (STAT3 protein) [nM] | IC50 (HCC827) [nM] | IC50 (Huh7) [nM] | IC50 (MKN45) [nM] | SMILES | Kd (STAT3 SH2 domain) [nM] | mortality in the mouse model ([1]; 25 mg/kg) | mortality in the mouse model ([1]; listed as IACS-101759, 25 mg/kg) | IC50 (Capan-2; Capan-2, FIG. 5B, read-out: IC50, inhibition of proliferation of pancreatic cancer cells) [nM] | IC50 (Capan-2; [2]) [nM] | IC50 (Capan-2; Homo sapiens, Capan-2, FIG. 5B, read-out: IC50, inhibition of proliferation of pancreatic cancer cells) [nM] | improvement of anti-tumor proliferative activity over OPB51602 and IACS-010759 (Capan-2; pancreatic cancer cells, FIG. 5B) [times] |
| --- | --- | --- | --- | --- | --- | --- | --- | --- | --- | --- | --- |
| < 100 | < 1000 | < 1000 | < 1000 | Cn1c(C(=O)N2CCN(C(=O)c3ccc(C(F)(F)F)cc3)CC2)cc2ccc(Oc3cnc(-c4nc(-c5ccc(C(F)(F)F)cc5)no4)cn3)cc21 [Example 39] |  |  |  |  | < 1000 |  |  |
| < 1000 | < 1000 | < 1000 | < 1000 | Cn1c(C(=O)N2CCN(Cc3cccc(C(F)(F)F)c3)CC2)cc2ccc(Oc3cnc(-c4nc(-c5ccc(C(F)(F)F)cc5)no4)cn3)cc21 [Example 29, (1-methyl-6-((5-(3-(4-(trifluoromethyl)phenyl)-1,2,4-oxadiazol-5-yl)pyrazin-2-yl)oxy)-1H-indol-2-yl)(4-(3-(trifluoromethyl)benzyl)piperazin-1-yl)methanone] |  |  |  |  | < 1000 |  |  |
| < 100 | < 100 | < 100 | < 100 | Cn1c(C(=O)N2CCN(Cc3cccc(OCC(F)(F)F)c3)CC2)cc2ccc(Oc3cnc(-c4nc(-c5ccc(C(F)(F)F)cc5)no4)cn3)cc21 [Example 32, (1-methyl-6-((5-(3-(4-(trifluoromethyl)phenyl)-1,2,4-oxadiazol-5-yl)pyrazin-2-yl)oxy)-1H-indol-2-yl)(4-(3-(2,2,2-trifluoroethoxy)benzyl)piperazin-1-yl)methanone] |  |  |  |  | < 100 |  |  |

Reference: patent publication US12448372B2, “Class of triaromatic compounds targeting bifunctional phosphorylation site of STAT3 and applications thereof” (SHANGHAI YUYAO BIOTECH LTD., priority 2019, dated 2025)
